Data on ten molecules can be found in DBAASP.

Structures are written as SMILES. In brackets after ≈: the same amount, converted by molar mass. Several values for one entry are separate records, joined by “and”; a condition that tells them apart may be missing. Equal values may be shown once. Where only a bound is given, the exact number is not on record here.

Broadly, the MIC is the least concentration at which growth counts as inhibited. A high value points to a need for much substance.

Among the test systems are Escherichia coli UB1005; Escherichia coli W3110; Bacillus megaterium Bm11; Staphylococcus capitis 1; Escherichia coli ML-35p; Staphylococcus aureus.
Common to all, as to assay: ≥ marks a high value that may be exact or a test limit, other limits are often not marked, values filed in µg/mL are converted to µM
In assay [1] the test system is Enterococcus faecalis ATCC 29212.
Assay [2] relates to Staphylococcus epidermidis C621.
For assay [3], the system named is Staphylococcus aureus ATCC 25923.
Assay [4] relates to Bacillus subtilis ATCC 6633.
In assay [5] the test system is Escherichia coli ATCC 25922.
Assay [6] relates to Pseudomonas aeruginosa ATCC 27853.
Assay [7] has as its system Klebsiella pneumoniae ATCC BAA-1705.
The test system of assay [8] is Staphylococcus aureus Cowan 1.
Assay [9] has as its system Yersinia pseudotuberculosis YPIII.
Assay [10] relates to Candida albicans ATCC 10231.
The test system of assay [11] is Candida albicans ATCC 20032.
The subject of assay [12] is Listeria monocytogenes EGD.
The test system of assay [13] is Candida albicans TIMM 1768.
Assay [14] deals with Trichosporon beigelii KCTC 7707.
Assay [15] relates to Pseudomonas aeruginosa KCTC 1637.
The subject of assay [16] is Bacillus subtilis KCTC 1918.
Assay [17] concerns Escherichia coli KCTC 1682.
Assay [18] deals with Salmonella typhimurium KCTC 1926.
Assay [19] concerns Staphylococcus aureus KCTC 1621.
In assay [20] the test system is Staphylococcus haemolyticus.

`C[C@H](NC(=O)[C@H](C)NC(=O)[C@H](C)NC(=O)[C@H](CCCCN)NC(=O)[C@@H](N)CCCCN)C(=O)N[C@@H](C)C(=O)N[C@@H](Cc1ccccc1)C(=O)N[C@@H](C)C(=O)N[C@@H](C)C(=O)N[C@@H](Cc1ccccc1)C(=O)N[C@@H](C)C(=O)N[C@@H](C)C(=O)N[C@@H](Cc1c[nH]c2ccccc12)C(=O)N[C@@H](Cc1ccccc1)C(=O)N[C@@H](C)C(=O)N[C@@H](C)C(=O)N[C@@H](Cc1ccccc1)C(=O)N[C@@H](C)C(=O)N[C@@H](C)C(=O)N[C@@H](C)C(=O)N[C@@H](C)C(=O)N[C@@H](CCCCN)C(=O)N[C@@H](CCCCN)C(=O)N[C@@H](CCCCN)C(=O)N[C@@H](CCCCN)C(N)=O` [KKAAAAFAAFAAWFAAFAAAAKKKK]: the MIC in assay [1] is greater than 32 µM; in the assay with Escherichia coli UB1005, 8 µM (≈ 20.4 µg/mL); in assay [2], 4 µM (≈ 10.2 µg/mL); in [3], 32 µM (≈ 81.8 µg/mL); in assay [4] it was 2 µM (≈ 5.11 µg/mL); in assay [5] it was 16 µM (≈ 40.9 µg/mL). Moreover, the MIC in assay [6] was found to be 8 µM (≈ 20.4 µg/mL).

Consider `CC[C@H](C)[C@H](N)C(=O)N[C@@H](Cc1c[nH]c2ccccc12)C(=O)N[C@@H](Cc1c[nH]c2ccccc12)C(=O)N[C@@H](C)C(=O)N[C@@H](CCCCN)C(=O)N[C@@H](Cc1c[nH]c2ccccc12)C(=O)NCC(=O)N[C@@H](CC(C)C)C(=O)N[C@@H](CCCCN)C(=O)N[C@@H](CC(C)C)C(=O)N[C@@H](CC(C)C)C(=O)N[C@@H](CCCN=C(N)N)C(=O)N[C@@H](Cc1ccc(O)cc1)C(=O)N[C@@H](CCCN=C(N)N)C(=O)N[C@@H](CCCN=C(N)N)C(=O)N[C@H](C(=O)N[C@@H](Cc1c[nH]c2ccccc12)C(=O)O)[C@@H](C)CC` [IWWAKWGLKLLRYRRIW], for which the MIC was no less than 32 µM in [7] and 4 µM (≈ 9.38 µg/mL) against Escherichia coli W3110.

Regarding `CC[C@H](C)[C@H](NC(=O)CNC(=O)[C@H](CO)NC(=O)[C@H](CC(C)C)NC(=O)[C@@H](NC(=O)[C@H](CCCN=C(N)N)NC(=O)[C@H](C)NC(=O)[C@@H](NC(=O)[C@H](CC(C)C)NC(=O)[C@@H]1CCCN1C(=O)[C@H](CC(C)C)NC(=O)[C@@H](N)Cc1ccccc1)[C@@H](C)CC)C(C)C)C(=O)N[C@@H](CC(C)C)C(N)=O` [FLPLIARVLSGIL], the MIC in assay [8] is 2.5 µM (≈ 3.53 µg/mL); against Bacillus megaterium Bm11, 2.5 µM (≈ 3.53 µg/mL); in [9], 20 µM (≈ 28.2 µg/mL); in [10], 2.5 µM (≈ 3.53 µg/mL); in the assay with Staphylococcus capitis 1, 5 µM (≈ 7.05 µg/mL); in assay [5] it was greater than 40 µM.

Consider `CC[C@H](C)[C@@H]1NC(=O)[C@H](CO)NC(=O)[C@H](CCCCN)NC(=O)[C@H]([C@@H](C)O)NC(=O)[C@H](Cc2c[nH]c3ccccc23)NC(=O)[C@@H](NC(=O)CNC(=O)[C@H](CCCN=C(N)N)NC(=O)[C@H](CC(C)C)NC(=O)[C@H](C)NC(=O)[C@H](C)N)CSSC[C@@H](C(=O)N[C@@H](CO)C(=O)NCC(=O)N[C@@H](CCCCN)C(=O)N[C@@H](CCCN=C(N)N)C(=O)O)NC(=O)[C@@H]2CCCN2C(=O)[C@H](CCCCN)NC(=O)[C@@H]2CCCN2C(=O)[C@@H]2CCCN2C1=O` [AALRGCWTKSIPPKPCSGKR], for which the results for the minimum inhibitory concentration (MIC) in [3] and in assay [11] were 5.8 µM (≈ 12.5 µg/mL) and 23.1 µM (≈ 49.8 µg/mL), respectively.

Turning to `CC[C@H](C)[C@H](N)C(=O)N[C@@H](CC(C)C)C(=O)NCC(=O)N1CCC[C@H]1C(=O)N[C@H](C(=O)N[C@@H](CC(C)C)C(=O)NCC(=O)N[C@@H](CC(C)C)C(=O)N[C@H](C(=O)N[C@@H](CO)C(=O)N[C@@H](CC(N)=O)C(=O)N[C@@H](C)C(=O)N[C@@H](CC(C)C)C(=O)NCC(=O)NCC(=O)N[C@@H](CC(C)C)C(=O)N[C@@H](CC(C)C)C(N)=O)C(C)C)C(C)C` [ILGPVLGLVSNALGGLL], the MIC is greater than 62.3 µM in assay [3], no less than 62.3 µM in [4], no less than 62.3 µM in [11] and greater than 62.3 µM in [5].

On to `CC[C@H](C)[C@H](N)C(=O)N[C@@H](Cc1c[nH]c2ccccc12)C(=O)N[C@@H](Cc1c[nH]c2ccccc12)C(=O)N[C@@H](C)C(=O)N[C@@H](CCCCN)C(=O)N[C@@H](CC(C)C)C(=O)NCC(=O)N[C@@H](CC(C)C)C(=O)N[C@@H](CCCCN)C(=O)N[C@@H](CC(C)C)C(=O)N[C@@H](CC(C)C)C(=O)N[C@@H](CCCN=C(N)N)C(=O)N[C@@H](Cc1ccc(O)cc1)C(=O)N[C@@H](CCCN=C(N)N)C(=O)N[C@@H](CCCN=C(N)N)C(=O)N[C@@H](Cc1c[nH]c2ccccc12)C(=O)N[C@@H](Cc1ccc(O)cc1)C(=O)O` [IWWAKLGLKLLRYRRWY], for which the minimal inhibitory concentration (MIC) in assay [7] came out at 4 µM (≈ 9.29 µg/mL); in the assay with Escherichia coli W3110 it was 2 µM (≈ 4.64 µg/mL).

On to `CC[C@H](C)[C@@H]1NC(=O)[C@H](CCCN=C(N)N)NC(=O)[C@@H]2CSSC[C@@H]3NC(=O)[C@H]([C@@H](C)O)NC(=O)CNC(=O)[C@H](Cc4ccc(O)cc4)NC(=O)[C@H](CCCN=C(N)N)NC(=O)[C@H](CCCN=C(N)N)NC(=O)[C@H](CCC(=O)O)NC(=O)CNC(=O)[C@H](C)NC(=O)[C@H](Cc4ccccc4)NC(=O)[C@H](CSSC[C@H](NC(=O)[C@H](Cc4ccccc4)NC(=O)[C@H](C)NC(=O)[C@H](Cc4c[nH]c5ccccc45)NC(=O)[C@H](C(C)C)NC(=O)[C@H](CCCN=C(N)N)NC(=O)CNC(=O)[C@H](CC(C)C)NC(=O)[C@H](Cc4ccc(O)cc4)NC(=O)[C@H](Cc4ccccc4)NC3=O)C(=O)N[C@H](C(=O)O)CSSC[C@H](NC(=O)[C@H](C)N)C(=O)N[C@@H](Cc3ccc(O)cc3)C(=O)N2)NC(=O)[C@H](C)NC(=O)[C@@H]2CCCN2C1=O` [ACYCRIPACFAGERRYGTCFYLGRVWAFCC], for which the minimum inhibitory concentration (MIC) against Escherichia coli ML-35p is 2.4 µM and 7.1 µM; in assay [12], 2.2 µM and 1.8 µM.

`CC(C)C[C@H](NC(=O)[C@H](CCCCN)NC(=O)[C@H](CCCCN)NC(=O)[C@H](CC(C)C)NC(=O)[C@H](CC(C)C)NC(=O)[C@H](CCCCN)NC(=O)[C@H](CCCCN)NC(=O)[C@H](CC(C)C)NC(=O)[C@H](CC(C)C)NC(=O)[C@@H]1CCCN1C(=O)[C@H](CCCCN)NC(=O)[C@H](CCCCN)NC(=O)[C@H](Cc1c[nH]c2ccccc12)NC(=O)[C@@H](N)CCCCN)C(N)=O` [KWKKPLLKKLLKKL]: the MIC in [13] was 12.5 µM (≈ 22 µg/mL); in [14], 1.56 µM (≈ 2.75 µg/mL); in assay [15], 3.12 µM (≈ 5.5 µg/mL); in assay [16], 3.12 µM (≈ 5.5 µg/mL); in assay [17], 6.25 µM (≈ 11 µg/mL); in assay [18], 1.56 µM (≈ 2.75 µg/mL). This molecule also yielded a minimal inhibitory concentration (MIC) in [19] of 6.25 µM (≈ 11 µg/mL).

Regarding `CC(C)C[C@H](NC(=O)CNC(=O)CNC(=O)[C@H](C)NC(=O)[C@@H](NC(=O)[C@H](CC(N)=O)NC(=O)[C@H](CC(C)C)NC(=O)[C@H](CC(C)C)NC(=O)[C@H](CC(=O)O)NC(=O)[C@@H](NC(=O)[C@@H](NC(=O)[C@@H](NC(=O)CN)C(C)C)C(C)C)[C@@H](C)O)[C@@H](C)O)C(=O)N[C@@H](CC(C)C)C(=O)NCC(=O)N[C@@H](CC(N)=O)C(=O)N[C@@H](CC(C)C)C(=O)N[C@H](C(=O)NCC(=O)N[C@@H](CO)C(=O)N[C@@H](CC(C)C)C(=O)N[C@@H](CO)C(=O)NCC(N)=O)C(C)C` [GVVTDLLNTAGGLLGNLVGSLSG], the MIC is no less than 400 µM in assay [20] and 300 µM (≈ 638 µg/mL) against Staphylococcus aureus.

As to `CC[C@H](C)[C@H](N)C(=O)N[C@@H](CC(C)C)C(=O)NCC(=O)N1CCC[C@H]1C(=O)N[C@H](C(=O)N[C@H](C(=O)N[C@@H](CO)C(=O)N[C@H](C(=O)N[C@H](C(=O)NCC(=O)N[C@@H](CC(N)=O)C(=O)N[C@@H](C)C(=O)N[C@@H](CC(C)C)C(=O)NCC(=O)NCC(=O)N[C@@H](CC(C)C)C(=O)N[C@@H](CC(C)C)C(=O)N[C@@H](CCCCN)C(=O)N[C@@H](CC(N)=O)C(=O)N[C@@H](CC(C)C)C(N)=O)[C@@H](C)CC)[C@@H](C)O)[C@@H](C)CC)C(C)C` [ILGPVISTIGNALGGLLKNL], the MIC was greater than 50.9 µM in [3], no less than 50.9 µM in assay [4], no less than 50.9 µM in assay [11] and greater than 50.9 µM in [5].
